Measurements published in patent US8853194B2, “Sterol derivatives and their synthesis and use” (priority 2009, dated 2014).

Experiments:
mouse hepatoma cells H22 = conditions: 0.02 g/(Kg.d) i.p.
Method: (§1) Ascites mice S180 and H22 that had been vaccinated 7 days were sacrificed by cervical, from which ascites were obtained under sterile conditions respectively; the obtained ascites were washed twice with culture medium RPMI1640, and prepared to a 2×10^7/ml suspension in sterile physiological saline. The suspension of cell S180 was inoculated subcutaneously in the right axillas of 40 mice (0.1 ml/mouse) to produce solid tumor models; while the suspension of cell H22 was inoculated in abdominal cavities of 40 mice (0.2 ml/mouse) by conditional means under sterile conditions to produce ascites tumor models.
(§2) 90 mice were randomly divided into 9 groups of 3 types, wherein the first type group was a normal control group, the second type groups were S180 solid tumor groups including a positive (cyclophosphamide) control group, a negative control group, a low dose group and a high dose group, and the third type groups were H22 ascites groups including a positive (cyclophosphamide) control group, a negative control group, a low dose group and a high dose group. There were 10 mice in each group. The experiment was repeated for three times.
(§3) […], the negative control group was injected same volume of corn oil, and the positive control group was injected cyclophosphamide injection solution with the dose of 0.02 g/(Kg.d). The used injection volume was 0.1 ml/mouse and the injection was given as intraperitoneal injection every other day for 15 days. During the 15 days, general activities, fur, feces, etc. of the mice were daily observed. 24 hours after the last administration, mice that had been inoculated subcutaneously with S180 were sacrificed by cervical, from which tumors, thymus and spleen were taken out. After the last administration, mice that had been inoculated in abdominal cavities with H22 were conventionally bred continually, weighted and observed the survival time every day until all the mice in the negative group were dead.
24 hours after the inoculation of ascites, the weight and the amount of abdominal circumference of the mice in the groups of ascites models were measured. The drug administration and breeding were continued according to different groups, the weight and the abdominal circumference were measured daily until one day before death. The weight increase (g) and abdominal-circumference increase (cm) were calculated. The experiment started on the day of tumor inoculation and ended on the day when all the mice in the negative control group were dead; the time of deaths were recorded, and the survival extending rate was calculated. Survival Extending Rate(%)=[(mean survival days of treatment group−mean survival days of negative control group)/mean survival days of control group]×100%
(§4) After finishing the administration in all mice in the solid tumor group, the mice were sacrificed and their spleens and livers were weighed by electronic balance. The spleen index was equivalent to the spleen weight (mg) of mice in each group divided by the weight of the mice, while the liver index was equivalent to the liver weight […] divided by the weight (g) of the mice.

mouse sarcoma cells S180 = conditions: 0.02 g/(Kg.d) i.p.
Method: as §1, §2, §3, §4
On the next day after drug withdrawal, the mice in the solid-tumor […] group were weighed and sacrificed by cervical, wherein the serum was collected by eye bleeding for later use in subsequent experiments. Tumor tissues were dissected and weighed by electronic balance. The tumor inhibition rate was calculated as follows. Tumor Inhibition Rate(%)=[(mean tumor weight of negative control group−mean tumor weight of treatment group)/mean tumor weight of control group]×100%

VEGF = conditions: positive CTX control group, OD at 450 nm
Method: Before taking tumors out, blood was collected by eye bleeding from mice in the four groups, i.e. the negative control group, the positive CTX control group, the high dose (32 mg/kg) group and the low dose (16 mg/kg) group.
1.1 Preparing reagents, samples and standards;
1.2 Adding the prepared samples and standards, and reacting for 90 minutes at 37° C.;
1.3 Washing the plate twice, adding biotinylated antibody working solution, and reacting for 60 minutes at 37° C.;
1.4 Washing the plate for three times, adding ABC working solution, and reacting for 30 minutes at 37° C.;
1.5 Washing the plate for five times, adding TMB color liquid, and reacting in dark for 15 minutes at 37° C.;
1.6 Adding TMB stop solution, and measuring OD value at 450 nm.

CAM vessels = assay: CAM assay, effect on tumor angiogenesis; assay type: in vivo, German Roman embryonated eggs; conditions: 4 ug/embryo, 72 hours incubation
Method: A sterile gelatin sponge, previously made into disks with diameter of 5 mm by a hole puncher, was used as sample carrier. […] There were 3 dose groups, wherein 5 μl (low dose group, with a dose volume of 2 μg/embryo), 10 μl (middle dose group, with a dose volume of 4 μg/embryo), and 20 μl (high dose group, with a dose volume of 8 μg/embryo) of the solution were added respectively into gelatin sponge slices by a quantitative liquid transfer. The sponge slices were dried in the sterile environment.
A sterilized egg was placed into a 37° C. incubator with its air chamber upward. In the 7th day, the embryo was positioned on a super-clean bench and sterilized by ethanol, and then it was drilled by a dental drill to form a little hole in the top of the embryo. Egg shell and shell membrane around the hole were carefully removed to form an opening of about 1.2 cm×1.2 cm; after determining a sample-adding site, the air chamber membrane was carefully pricked at the separation place between the chamber and the yolk by a syringe needle; through the prick hole 1-2 drops of sterilized water was injected, which made the chamber membrane and the CAM membrane be separated; after gently removing the upper layer of the chamber membrane with forceps, the CAM membrane in the lower layer was exposed.
A drug-containing carrier was placed, at the junction area of the CAM membrane and the yolk sac membrane, on a site where vessels were less, and then sealed with sterilized transparent adhesive tape to continue to incubate for 72 hours.
After the incubation, the transparent adhesive tape stopped on the top of the air chamber was gently removed by forceps; a mixture of methanol/acetone (1:1, 1-2 ml) was gently added; the room temperature was remained constant for 10 minutes. Then, the CAM membrane was carefully peeled off and placed on a glass slide for observing and taking photos. The effect of the compound on angiogenesis was assessed by counting the numbers of large, middle, small blood vessels radiated by the carrier.

SMILES: O=P1(N(CCCl)CCCl)NCCCO1 (stereo not shown) [Cyclophosphamide, reference compound]
- Abdominal circumference increase (cm) (mouse hepatoma cells H22; H22 ascites mice): 2.30 ± 0.66^(2)(4) cm
- Survival extending rate (%) (mouse hepatoma cells H22; H22 ascites mice): 57.73%
- Survival time (day) (mouse hepatoma cells H22; H22 ascites mice): 15.3 ± 1.06^(4) day
- Weight increase (g) (mouse hepatoma cells H22; H22 ascites mice): 3.42 ± 1.67^(2)(4) g
- Weight increase (mouse hepatoma cells H22; H22 ascites mice, listed as cyclophosphamide): 3.42 g
- Liver index (100 g/g) (mouse hepatoma cells H22; ascites mice): 3.26 ± 0.27^(1)(4) 100 g/g
- Spleen index (mg/g) (mouse hepatoma cells H22; ascites mice): 2.45 ± 0.34^(1)(4) mg/g
- Liver index (100 g/g) (mouse sarcoma cells S180; S180 mice): 3.09 ± 0.31^(1)(4) 100 g/g
- Spleen index (mg/g) (mouse sarcoma cells S180; S180 mice): 2.76 ± 0.64^(1)(4) mg/g
- Tumor inhibition rate (%) (mouse sarcoma cells S180; S180 sarcoma mice): 62.63%
- Tumor weight (g) (mouse sarcoma cells S180; S180 sarcoma mice): 0.518 ± 0.231^(4) g
- Weight increase (g) (mouse sarcoma cells S180; S180 sarcoma mice): 4.76 ± 1.01^(1)(3) g
- OD value of serum VEGF (VEGF): 0.2205 ± 0.0238

SMILES: Cc1ccc(C(=O)Nc2ccc(S(=O)(=O)O)c3cc(S(=O)(=O)O)cc(S(=O)(=O)O)c23)cc1NC(=O)c1cccc(NC(=O)Nc2cccc(C(=O)Nc3cc(C(=O)Nc4ccc(S(=O)(=O)O)c5cc(S(=O)(=O)O)cc(S(=O)(=O)O)c45)ccc3C)c2)c1 [Suramin, reference compound]
- Large vessels (number of the vessels) (CAM vessels): 3.6 ± 2.0
- Middle vessels (number of the vessels) (CAM vessels): 12.4 ± 3.8
- Small vessels (number of the vessels) (CAM vessels): 6.1 ± 3.0
